Tests used:
[1] = pKa via potentiometric titration; type: physicochemical
Text: Where this threshold is not met, non-ionic interactions (e.g., hydrogen bonds) can still occur between neutral acid and the base compounds to form, e.g., a co-crystal.

[2] = tested on: Btk; conditions: reported in the '853 application; read-out: IC50 in a pBTK assay; cited from earlier work
[3] = DVS (dynamic vapor sorption) test; type: physicochemical
Protocol: DVS was measured via a SMS (Surface Measurement Systems) DVS Intrinsic. The relative humidity at 25° C. were calibrated against deliquescence point of LiCl, Mg(NO3)2 and KCl.

In the case of `Cc1cc(-c2ccnc(Nc3cnn(C)c3)n2)ccc1CNC(=O)N1CC(OC(C)C)C1` [Compound 1, 3-isopropoxy-N-(2-methyl-4-(2-((1-methyl-1H-pyrazol-4-yl)amino)pyrimidin-4-yl)benzyl)azetidine-1-carboxamide], the pKa [1] is given as 3.31 and the IC50 [2] is given as […].
In the case of `Cc1cc(-c2ccnc(Nc3cnn(C)c3)n2)ccc1CNC(=O)N1CC(OC(C)C)C1` [Compound 2 Type II], the “form change after the DVS test (XRPD)” value [3] is reported as “no form change”, the “water uptake (DVS)” value ([3]; 25° C./80% RH) is reported as 0.3% and the hygroscopicity ([3]; from DVS, 25° C./80% RH) is reported as “slightly hygroscopic”.
